Article PMC9785202, “Changes in Disposition of Ezetimibe and Its Active Metabolites Induced by Impaired Hepatic Function: The Influence of Enzyme and Transporter Activities” (Pharmaceutics, 2022)

What was measured:
OATP1B1 = target: T1, OATP1B1 (Homo sapiens, UniProt Q9Y6L6); assay: Uptake of EZE-Ph into OATP1B1-transfected HEK293 cells; format: in vitro ADME
T1 construct: host or cells: HEK293
T1 sequence (Q9Y6L6 1-691): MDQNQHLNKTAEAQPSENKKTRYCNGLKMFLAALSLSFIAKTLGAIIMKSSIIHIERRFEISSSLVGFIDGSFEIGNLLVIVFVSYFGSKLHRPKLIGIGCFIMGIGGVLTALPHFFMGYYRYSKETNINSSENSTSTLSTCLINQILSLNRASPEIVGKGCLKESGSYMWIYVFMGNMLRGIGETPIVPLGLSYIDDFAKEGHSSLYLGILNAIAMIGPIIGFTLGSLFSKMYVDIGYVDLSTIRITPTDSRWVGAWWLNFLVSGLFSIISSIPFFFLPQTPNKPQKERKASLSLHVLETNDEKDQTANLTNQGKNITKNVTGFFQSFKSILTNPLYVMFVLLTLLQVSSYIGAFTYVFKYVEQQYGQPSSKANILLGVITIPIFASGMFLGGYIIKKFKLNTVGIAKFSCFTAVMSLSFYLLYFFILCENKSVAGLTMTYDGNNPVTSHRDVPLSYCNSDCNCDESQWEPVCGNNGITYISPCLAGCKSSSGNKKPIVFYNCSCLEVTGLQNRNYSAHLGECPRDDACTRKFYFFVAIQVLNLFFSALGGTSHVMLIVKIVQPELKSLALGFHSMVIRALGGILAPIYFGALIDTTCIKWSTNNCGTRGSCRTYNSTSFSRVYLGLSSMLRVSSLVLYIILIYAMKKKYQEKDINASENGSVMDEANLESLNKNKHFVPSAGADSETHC
Description: The kinetic parameters and the half inhibitory concentration (IC50) were calculated using GraphPad Prism. […] The intrinsic clearance (CLint) was calculated as CLint = Vmax/Km.

[1] = parameters: method as in PMID 10780982; conditions: intraduodenal administration of EZE; cited from earlier work
liver slices = assay: Uptake of EZE-Ph in liver slices of control and CCl4-induced rats; format: in vitro ADME, rat; conditions: 10 μM EZE-Ph, 10 min
Description: Liver slices were prepared as previously described elsewhere. Rats were anesthetized and sacrificed via exsanguination from the abdominal aorta, and the livers were excised. Liver cylindrical cores of an 8 mm diameter were made before slicing. Liver slices with a thickness of 300 μm were obtained using a Krumdieck tissue slicer MD6000 (TSE systems, Chesterfield, MO) with ice-cold and carbogen-saturated Krebs–Henseleit buffer.
After 5 min of preincubation at 4 and 37 °C, the liver slices were transferred to 24-well plates containing 500 μL of buffer with 10 μM EZE-Ph for 10 min. After incubation, the liver slices were washed 3 times with ice-cold HBSS and dried on filter paper. Each liver slice was homogenized with 200 μL of purified water and the protein content was determined using a BCA protein assay kit. The concentration of EZE-Ph was determined using LC-MS/MS.

SMILES: O=C(O)[C@H]1O[C@@H](Oc2ccc([C@@H]3[C@@H](CC[C@H](O)c4ccc(F)cc4)C(=O)N3c3ccc(F)cc3)cc2)[C@H](O)[C@@H](O)[C@@H]1O [EZE-Ph, ezetimibe phenoxy β-D-glucuronide]
- uptake in transporter-transfected cells relative to mock-transfected cells (OATP1B1; 10 μM EZE-Ph, OATP1B1 HEK293): 5.3 times
- CLint (OATP1B1; OATP1B1 HEK293, CLint = Vmax/Km): 0.56 μL/min/mg Protein
- Kinetic Model (OATP1B1; OATP1B1 HEK293, uptake time 5 min): Substrate inhibition
- EZE-Ph generated in the intestine [1]: > 95%
- EZE-Ph uptake in liver slices, 37 °C vs 4 °C (liver slices): significantly greater at 37 °C than 4 °C
- EZE-Ph uptake in liver slices, control vs CCl4-induced rats (liver slices): no significant difference
